Measured values from ChEMBL document CHEMBL3046389, “Synthesis and biological evaluation of novel hydroquinone dimethyl ethers as potential anticancer and antimicrobial agents” (2013).
Converted amounts (≈) assume the structure as drawn.

Experiments:
Assay type in all cases: functional
[1] = tested on: HOP-62; assay: Growth inhibition of Homo sapiens (human) HOP62 cells at 10 uM after 48 hr by SRB assay; details: HOP-62, 48 h, read-out: GI
[2] = tested on: SW-620; assay: Growth inhibition of Homo sapiens (human) SW620 cells at 10 uM after 48 hr by SRB assay; details: SW-620, 48 h, read-out: GI
[3] = tested on: KM12; assay: Anticancer activity against Homo sapiens (human) KM12 cells after 48 hr by SRB assay; details: KM12, 48 h
[4] = tested on: SN12C; assay: Growth inhibition of Homo sapiens (human) SN12C cells at 10 uM after 48 hr by SRB assay; details: read-out: GI
[5] = tested on: SNB-75; assay: Anticancer activity against Homo sapiens (human) SNB75 cells after 48 hr by SRB assay; details: SNB-75, 48 h
[6] = tested on: DU-145; assay: Anticancer activity against Homo sapiens (human) DU145 cells after 48 hr by SRB assay; details: DU-145, 48 h
[7] = tested on: RPMI-8226; assay: Anticancer activity against Homo sapiens (human) RPMI8226 cells after 48 hr by SRB assay; details: RPMI-8226, 48 h
[8] = tested on: A549; assay: Growth inhibition of Homo sapiens (human) A549/ATCC cells at 10 uM after 48 hr by SRB assay; details: A549, 48 h, read-out: GI
[9] = tested on: OVCAR-5; assay: Anticancer activity against Homo sapiens (human) OVCAR5 cells after 48 hr by SRB assay; details: OVCAR-5, 48 h
[10] = tested on: SF-539; assay: Anticancer activity against Homo sapiens (human) SF539 cells after 48 hr by SRB assay; details: SF-539, 48 h
[11] = tested on: NCI-H460; assay: Anticancer activity against Homo sapiens (human) NCI-H460 cells after 48 hr by SRB assay; details: NCI-H460, 48 h
[12] = tested on: Escherichia coli; assay: Antimicrobial activity against Escherichia coli ATCC 11775 after 48 hr by two-fold serial broth dilution method; details: ATCC 11775, 48 h
[13] = tested on: UACC-257; assay: Anticancer activity against Homo sapiens (human) UACC257 cells after 48 hr by SRB assay; details: UACC-257, 48 h
[14] = tested on: SF-268; assay: Anticancer activity against Homo sapiens (human) SF268 cells after 48 hr by SRB assay; details: SF-268, 48 h
[15] = tested on: MOLT-4; assay: Anticancer activity against Homo sapiens (human) MOLT4 cells after 48 hr by SRB assay; details: MOLT-4, 48 h
[16] = tested on: T47D; assay: Anticancer activity against Homo sapiens (human) T47D cells after 48 hr by SRB assay
[17] = tested on: HL-60(TB); assay: Anticancer activity against Homo sapiens (human) HL-60(TB) cells after 48 hr by SRB assay; details: HL-60, 48 h
[18] = tested on: SK-OV-3; assay: Growth inhibition of Homo sapiens (human) SKOV3 cells at 10 uM after 48 hr by SRB assay; details: SK-OV-3, 48 h, read-out: GI
[19] = tested on: BT-549; assay: Anticancer activity against Homo sapiens (human) BT549 cells after 48 hr by SRB assay; details: BT-549, 48 h
[20] = tested on: NCI-H460; assay: Growth inhibition of Homo sapiens (human) NCI-H460 cells at 10 uM after 48 hr by SRB assay; details: NCI-H460, 48 h, read-out: GI
[21] = tested on: RXF 393; assay: Growth inhibition of Homo sapiens (human) RXF393 cells at 10 uM after 48 hr by SRB assay; details: RXF 393, 48 h, read-out: GI
[22] = tested on: SK-OV-3; assay: Anticancer activity against Homo sapiens (human) SKOV3 cells after 48 hr by SRB assay; details: SK-OV-3, 48 h
[23] = tested on: HT-29; assay: Anticancer activity against Homo sapiens (human) HT-29 cells after 48 hr by SRB assay; details: HT-29, 48 h
[24] = tested on: 786-0; assay: Anticancer activity against Homo sapiens (human) 786-0 cells after 48 hr by SRB assay; details: 786-0, 48 h
[25] = read-out: LC50 (the source's name)

For `COc1ccc(OC)c(/C=C/c2nnc(Nc3ccc(Cl)cc3)o2)c1`, which inhibition of growth at 10 µM [1] is on record?
Its inhibition of growth at 10 µM is 64.7%.

And the inhibition of growth at 10 µM [2]?
Its inhibition of growth at 10 µM is 33.3%.

What about the GI50 [3] of the same molecule?
The GI50 was 17.4 µM.

And the TGI [3]?
The TGI was over 100 µM.

And the CC50 [3, 25]?
The CC50 was over 100 µM.

And the inhibition of growth at 10 µM [4]?
The inhibition of growth at 10 µM was 55.1%.

And the GI50 [5]?
Its GI50 is 2.26 µM.

And the TGI [5]?
Its TGI is 7.94 µM.

What about the CC50 [5, 25] of the same molecule?
The CC50 was over 100 µM.

And the GI50 [6]?
Its GI50 is 11.4 µM.

And the TGI [6]?
The TGI was 36.9 µM.

And the CC50 [6, 25]?
Its CC50 is over 100 µM.

What about the GI50 [7] of the same molecule?
Its GI50 is over 100 µM.

And the TGI [7]?
The TGI was over 100 µM.

And the CC50 [7, 25]?
Its CC50 is over 100 µM.

What about the inhibition of growth at 10 µM [8] of the same molecule?
The inhibition of growth at 10 µM was 59.8%.

What about the GI50 [9] of the same molecule?
Its GI50 is 32.5 µM.

What about the TGI [9] of the same molecule?
The TGI was over 100 µM.

What about the CC50 [9, 25] of the same molecule?
Its CC50 is over 100 µM.

And the GI50 [10]?
The GI50 was 11.8 µM.

And the TGI [10]?
Its TGI is 60.5 µM.

What about the CC50 [10, 25] of the same molecule?
The CC50 was over 100 µM.

What about the GI50 [11] of the same molecule?
The GI50 was 3.77 µM.

And the TGI [11]?
The TGI was over 100 µM.

What about the CC50 [11, 25] of the same molecule?
The CC50 was over 100 µM.

And the MBC [12]?
Its MBC is 50 µg/mL (≈ 140 µM).

And the MIC [12]?
Its MIC is 50 µg/mL (≈ 140 µM).

What about the GI50 [13] of the same molecule?
Its GI50 is 21.3 µM.

What about the LC50 (50% lethal concentration) [13] of the same molecule?
Its LC50 (50% lethal concentration) is over 100 µM.

What about the TGI [13] of the same molecule?
Its TGI is over 100 µM.

And the GI50 [14]?
Its GI50 is 7.6 µM.

What about the TGI [14] of the same molecule?
The TGI was 37.9 µM.

And the CC50 [14, 25]?
The CC50 was over 100 µM.

What about the GI50 [15] of the same molecule?
Its GI50 is over 100 µM.

What about the TGI [15] of the same molecule?
The TGI was over 100 µM.

And the CC50 [15, 25]?
Its CC50 is over 100 µM.

And the GI50 [16]?
Its GI50 is 2.54 µM.

What about the TGI [16] of the same molecule?
The TGI was over 100 µM.

And the CC50 [16, 25]?
Its CC50 is over 100 µM.

What about the GI50 [17] of the same molecule?
The GI50 was over 100 µM.

And the TGI [17]?
Its TGI is over 100 µM.

And the CC50 [17, 25]?
Its CC50 is over 100 µM.

And the inhibition of growth at 10 µM [18]?
The inhibition of growth at 10 µM was 67.1%.

And the TGI [19]?
Its TGI is over 100 µM.

What about the CC50 [19, 25] of the same molecule?
The CC50 was over 100 µM.

What about the inhibition of growth at 10 µM [20] of the same molecule?
The inhibition of growth at 10 µM was 84.5%.

What about the inhibition of growth at 10 µM [21] of the same molecule?
The inhibition of growth at 10 µM was 43.7%.

What about the GI50 [22] of the same molecule?
Its GI50 is 2.79 µM.

What about the LC50 [22] of the same molecule?
Its LC50 is 60.6 µM.

What about the TGI [22] of the same molecule?
Its TGI is 7.85 µM.

What about the GI50 [23] of the same molecule?
Its GI50 is 9.44 µM.

And the TGI [23]?
The TGI was 28.3 µM.

What about the CC50 [23, 25] of the same molecule?
The CC50 was 82.1 µM.

And the GI50 [24]?
The GI50 was 2.67 µM.

What about the TGI [24] of the same molecule?
The TGI was 7.6 µM.

What about the CC50 [24, 25] of the same molecule?
Its CC50 is 55.3 µM.
